In the supplement of paper PMC11061612:

Tests used:
Assay in all cases: combination Emax (second highest fraction inhibited in the dose matrix, 72 h); higher = more inhibition; extreme values may be limits of the assay
[1] = system: SW756 (Cervical Carcinoma)
Summary of the method: (§1)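 Bliss excess equals the observed combination effect minus the expected value EA + EB − EA·EB, where EA and EB are the effects of each agent alone. Combination Emax is the second-highest inhibition within the matrix. Inhibition was scaled from CellTiter-Glo 2.0 luminescence, with 0 set by vehicle wells and 1 by blank wells, after 72 hours of two-drug dosing of cells plated in 1536-well plates.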

[2] = system: MDA-MB-231 (Breast Carcinoma)
Summary of the method: as §1

[3] = system: DOV13 (Ovarian Carcinoma)
Summary of the method: as §1

[4] = system: IHH-4 (Thyroid Gland Carcinoma)
Summary of the method: as §1

[5] = system: KARPAS-1106P (B-Cell Non-Hodgkin's Lymphoma)
Summary of the method: as §1

[6] = system: CFPAC-1 (Pancreatic Carcinoma)
Summary of the method: as §1

[7] = system: NCI-H1299 (Non-Small Cell Lung Carcinoma)
Summary of the method: as §1

[8] = system: SW780 (Bladder Carcinoma)
Summary of the method: as §1

[9] = system: KARPAS-620 (Plasma Cell Myeloma)
Summary of the method: as §1

[10] = system: HPAC (Pancreatic Carcinoma)
Summary of the method: as §1

[11] = system: HCC2157 (Breast Carcinoma)
Summary of the method: as §1

[12] = system: KM-H2 (Hodgkin's Lymphoma)
Summary of the method: as §1

IGR-1 (Melanoma) = system: IGR-1 (Melanoma)
Summary of the method: as §1

[13] = system: SW1990 (Pancreatic Carcinoma)
Summary of the method: as §1

[14] = system: MDA-MB-157 (Breast Carcinoma)
Summary of the method: as §1

CAL-78 (Chondrosarcoma) = system: CAL-78 (Chondrosarcoma)
Summary of the method: as §1

DSH1 (Bladder Carcinoma) = system: DSH1 (Bladder Carcinoma)
Summary of the method: as §1

[15] = system: SNU-C5 (Colorectal Carcinoma)
Summary of the method: as §1

SN12C (Kidney Carcinoma) = system: SN12C (Kidney Carcinoma)
Summary of the method: as §1

SK-N-FI (Neuroblastoma) = system: SK-N-FI (Neuroblastoma)
Summary of the method: as §1

combination Emax [12] | SMILES | combination Emax [1] | combination Emax [2] | combination Emax [3] | combination Emax [4] | combination Emax [5] | combination Emax [6] | combination Emax [7] | combination Emax [8] | combination Emax [9] | combination Emax [10] | combination Emax [11] | combination Emax (IGR-1 (Melanoma)) | combination Emax [13] | combination Emax [14] | combination Emax (CAL-78 (Chondrosarcoma)) | combination Emax (DSH1 (Bladder Carcinoma)) | combination Emax [15] | combination Emax (SN12C (Kidney Carcinoma)) | combination Emax (SK-N-FI (Neuroblastoma))
0.153 | Cn1cnc2c(F)c(Nc3ccc(Br)cc3Cl)c(C(=O)NOCCO)cc21 [Selumetinib] + CC(C)n1c(=O)n(C)c2cnc3cc(F)c(-c4ccc(OCCCN5CCCCC5)nc4)cc3c21 [AZD1390] (first compound max 10 µM, 7x7, partner max 0.3 µM) | 0.229 | 0.501 | 0.124 | 0.436 | 0.0708 | 0.202 | 0.23 | 0.381 | 0.472 | 0.678 | 0.238 | 0.296 | 0.202 | 0.131 | 0.136 | 0.323 | 0.351 | 0.237 | 0.435
0.168 | Cn1cnc2c(F)c(Nc3ccc(Br)cc3Cl)c(C(=O)NOCCO)cc21 [Selumetinib] + CCN(CCO)CCCOc1ccc2c(Nc3cc(CC(=O)Nc4cccc(F)c4)[nH]n3)ncnc2c1 [AZD2811] (first compound max 10 µM, 7x7, partner max 1 µM) | 0.294 | 0.519 | 0.4 | 0.586 | 0.297 | 0.292 | 0.363 | 0.435 | 0.87 | 0.906 | 0.628 | 0.393 | 0.245 | 0.215 | 0.267 | 0.383 | 0.436 | 0.237 | 0.455
0.751 | Cn1cnc2c(F)c(Nc3ccc(Br)cc3Cl)c(C(=O)NOCCO)cc21 [Selumetinib] + C[C@@H]1COCCN1C2=NC(=NC(=C2)C3(CC3)[S@](=N)(=O)C)C4=C5C=CNC5=NC=C4 [AZD6738] (first compound max 10 µM, 7x7, partner max 10 µM) | 0.287 | 0.718 | 0.763 | 0.646 | 0.648 | 0.667 | 0.543 | 0.381 | 0.935 | 0.735 | 0.856 | 0.707 | 0.502 | 0.92 | 0.42 | 0.761 | 0.789 | 0.192 | 0.746

More lines, now with the values behind:

SMILES | combination Emax [12] | combination Emax [1] | combination Emax [2] | combination Emax [3] | combination Emax [4] | combination Emax [5] | combination Emax [6] | combination Emax [7] | combination Emax [8] | combination Emax [9] | combination Emax [10] | combination Emax [11] | combination Emax (IGR-1 (Melanoma)) | combination Emax [13] | combination Emax [14] | combination Emax (CAL-78 (Chondrosarcoma)) | combination Emax (DSH1 (Bladder Carcinoma)) | combination Emax [15] | combination Emax (SN12C (Kidney Carcinoma)) | combination Emax (SK-N-FI (Neuroblastoma))
CCc1c2c(nc3ccc(O)cc13)-c1cc3c(c(=O)n1C2)COC(=O)[C@]3(O)CC [SN-38] + CN(C)CCCOc1ccc(-c2ccc3ncc4c(c3c2)n(C2CCOCC2)c(=O)n4C)cn1 [AZD0156] (first compound max 0.3 µM, 7x7, partner max 1 µM) | 0.907 | 0.79 | 0.658 | 0.936 | 1 | 0.901 | 0.789 | 0.529 | 0.33 | 0.437 | 0.38 | 0.969 | 0.497 | 0.525 | 0.742 | 0.587 | 0.904 | 0.757 | 0.738 | 0.669
C[C@@H](c1ccc2nccn2c1)n1nnc2ncc(-c3cnn(C)c3)nc21 [Savolitinib] + CC1(C)CCC(CN2CCN(c3ccc(C(=O)NS(=O)(=O)c4ccc(NCC5CCOCC5)c([N+](=O)[O-])c4)c(Oc4cnc5[nH]ccc5c4)c3)CC2)=C(c2ccc(Cl)cc2)C1 [Venetoclax] (first compound max 1 µM, 7x7, partner max 1 µM) | 0.15 | 0.1 | 0.306 | 0.143 | 0.0656 | 0.2 | 0.0889 | 0.14 | 0.11 | 0.776 | 0.143 | 0.186 | 0.114 | 0.225 | 0.11 | 0.187 | 0.286 | 0.183 | 0.219 | 0.192
C[C@@H](c1ccc2nccn2c1)n1nnc2ncc(-c3cnn(C)c3)nc21 [Savolitinib] + Cc1c2c(nn1C)CSCc1cc(n(C)n1)CSc1cc(c3ccccc3c1)OCCCc1c(C(=O)O)n(C)c3c-2c(Cl)ccc13 [AZD5991] (first compound max 1 µM, 7x7, partner max 1 µM) | 0.11 | 0.128 | 0.284 | 0.153 | 0.0909 | 0.734 | 0.115 | 0.151 | 0.164 | 0.997 | 0.168 | 0.978 | 0.223 | 0.127 | 0.639 | 0.697 | 0.678 | 0.177 | 0.197 | 0.24
Cn1cnc2c(F)c(Nc3ccc(Br)cc3Cl)c(C(=O)NOCCO)cc21 [Selumetinib] + C=CCn1c(=O)c2cnc(Nc3ccc(N4CCN(C)CC4)cc3)nc2n1-c1cccc(C(C)(C)O)n1 [AZD1775] (first compound max 10 µM, partner max 1 µM) | 0.926 | 0.346 | 0.577 | 0.637 | 0.742 | 0.782 | 0.453 | 0.652 | 0.369 | 0.849 | 0.877 | 0.729 | 0.578 | 0.431 | 0.48 | 0.544 | 0.503 | 0.722 | 0.241 | 0.69
